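48-hour exposure; five concentrations; linearly interpolated endpoints. The concentration for 50% growth inhibition is given as GI50. TGI marks complete inhibition of growth.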
Key:
Assay in all cases: NCI-60 cell line screen, 48 h
SF-539 CNS = tested on: SF-539 CNS
PC-3 prostate = tested on: PC-3 prostate
SK-MEL-28 melanoma = tested on: SK-MEL-28 melanoma
BT-549 breast = tested on: BT-549 breast
UO-31 renal = tested on: UO-31 renal
LOX IMVI melanoma = tested on: LOX IMVI melanoma
MOLT-4 leukemia = tested on: MOLT-4 leukemia
M14 melanoma = tested on: M14 melanoma
NCI/ADR-RES ovarian = tested on: NCI/ADR-RES ovarian
RPMI-8226 leukemia = tested on: RPMI-8226 leukemia
HS 578T breast = tested on: HS 578T breast
SK-OV-3 ovarian = tested on: SK-OV-3 ovarian
NCI-H23 lung = tested on: NCI-H23 lung
A498 renal = tested on: A498 renal
SK-MEL-5 melanoma = tested on: SK-MEL-5 melanoma
HT29 colon = tested on: HT29 colon
MALME-3M melanoma = tested on: MALME-3M melanoma
IGROV1 ovarian = tested on: IGROV1 ovarian
SN12C renal = tested on: SN12C renal
UACC-62 melanoma = tested on: UACC-62 melanoma
DU-145 prostate = tested on: DU-145 prostate
CAKI-1 renal = tested on: CAKI-1 renal
OVCAR-3 ovarian = tested on: OVCAR-3 ovarian
SR leukemia = tested on: SR leukemia
KM12 colon = tested on: KM12 colon
UACC-257 melanoma = tested on: UACC-257 melanoma
U251 CNS = tested on: U251 CNS
SF-295 CNS = tested on: SF-295 CNS

C=C(C)[C@@H]1CC[C@]2(C(=O)O)CC[C@]3(C)[C@H](CC[C@@H]4[C@@]5(C)C/C(=C/c6cccc(I)c6)C(=O)C(C)(C)[C@@H]5CC[C@]43C)[C@@H]12
GI50 (SF-539 CNS): 2.17 µM
TGI (SF-539 CNS): 5.52 µM
GI50 (PC-3 prostate): 2.2 µM
TGI (PC-3 prostate): 10.6 µM
GI50 (SK-MEL-28 melanoma): 3.09 µM
TGI (SK-MEL-28 melanoma): 10.1 µM
GI50 (BT-549 breast): 2.2 µM
TGI (BT-549 breast): 6.75 µM
GI50 (UO-31 renal): 1.72 µM
TGI (UO-31 renal): 5.17 µM
GI50 (LOX IMVI melanoma): 1.72 µM
TGI (LOX IMVI melanoma): 3.58 µM
GI50 (MOLT-4 leukemia): 2.85 µM
TGI (MOLT-4 leukemia): 9.45 µM
GI50 (M14 melanoma): 2.14 µM
TGI (M14 melanoma): 5.21 µM
GI50 (NCI/ADR-RES ovarian): 3.22 µM
TGI (NCI/ADR-RES ovarian): 14.2 µM
GI50 (RPMI-8226 leukemia): 2.07 µM
TGI (RPMI-8226 leukemia): 7.06 µM
GI50 (HS 578T breast): 2.51 µM
TGI (HS 578T breast): 8.75 µM
GI50 (SK-OV-3 ovarian): 3.27 µM
TGI (SK-OV-3 ovarian): 11.9 µM
GI50 (NCI-H23 lung): 2.49 µM
TGI (NCI-H23 lung): 8.44 µM
GI50 (A498 renal): 2.1 µM
TGI (A498 renal): 6.72 µM
GI50 (SK-MEL-5 melanoma): 1.8 µM
TGI (SK-MEL-5 melanoma): 3.44 µM
GI50 (HT29 colon): 2.9 µM
TGI (HT29 colon): 9.76 µM
GI50 (MALME-3M melanoma): 2.46 µM
TGI (MALME-3M melanoma): 6.65 µM
GI50 (IGROV1 ovarian): 2.57 µM
TGI (IGROV1 ovarian): 8.7 µM
GI50 (SN12C renal): 2.93 µM
TGI (SN12C renal): 11.7 µM
GI50 (UACC-62 melanoma): 1.82 µM
TGI (UACC-62 melanoma): 4.16 µM
GI50 (DU-145 prostate): 2.63 µM
TGI (DU-145 prostate): 7.84 µM
GI50 (CAKI-1 renal): 2.22 µM
TGI (CAKI-1 renal): 10.7 µM
GI50 (OVCAR-3 ovarian): 1.78 µM
TGI (OVCAR-3 ovarian): 3.7 µM
GI50 (SR leukemia): 2.71 µM
TGI (SR leukemia): 12.5 µM
GI50 (KM12 colon): 1.59 µM
TGI (KM12 colon): 3.6 µM
GI50 (UACC-257 melanoma): 2.51 µM
TGI (UACC-257 melanoma): 8.23 µM
GI50 (U251 CNS): 1.71 µM
TGI (U251 CNS): 3.91 µM
GI50 (SF-295 CNS): 2.91 µM
TGI (SF-295 CNS): 12.6 µM

Reference: PubChem BioAssay (NCI)
